Columns and labels:
HUVEC cells = assay: MTT cell viability assay, endothelial cells; type: cell-based; settings: Homo sapiens, 24 h
Protocol: (§1) Cell viability was determined by detecting the absorbance at 570 nm in a microquant plate reader (Thermo Fisher), triplicate wells were analyzed at each dose.

HepG2 cells [1] = assay: Wound healing migration assay; type: cell-based, human; settings: HepG2, 24 h after wounding; UA 5 μM, US597 0.2, 1, 5 μM
Protocol: SW620, B16-F10 and HepG2 cells (5 × 10^5 cells per well) were plated in 6-well plates for 24 h, a perpendicular scratch wound was generated by scratching with a 10 μL pipette tip. […] Cells were photographed using a light microscope (Zeiss, Germany) at 0 and 24 h after the drug treatment. The distance that cells migrated through the scribed area was determined by measuring the wound width at 24 h after treatment, and subtracting it from the wound width at 0 h. Experiments were repeated at least three times.

VCAM-1 [2] = assay: qRT-PCR of mRNA in IL-1β-stimulated HUVECs; type: cell-based, human; settings: IL-1β 1 ng/mL 4 h, then 24 h, 5 μM
[3] = test system: B16-F10 melanoma lung metastasis; assay: B16-F10/C57BL/6 mouse melanoma lung metastasis model; type: in vivo, C57BL/6 mice; settings: 80 mg/kg/day oral, 28 days
Protocol: (§2) To establish the lung metastasis model, B16-F10 cells were harvested, washed with serum-free RPMI 1640 and resuspended to give the appropriate concentrations in PBS, and injected into the tail vein of C57BL/6 mice at a density of 5 × 10^4/200 μL. […] Mice weight was measured every four days for 7 times. Mice were sacrificed (n = 6) at the 28st days after tumor inoculation. The heart, liver, spleen, lung, kidney and small intestine were excised, washed with PBS, and fixed in 10% neutral buffered formalin, and these tissues were then paraffin embeddedand stained with hematoxylin and eosin (H&E). The number of surface tumor nodules was determined by visual inspection using a magnifying glass, and histological observations were performed under a microscope (Zeiss, Germany).

HepG2 cells [4] = assay: Transwell matrigel invasion assay; type: cell-based, human; settings: HepG2, 5 μM, 24 h; control 88 ± 5
Protocol: An invasion assay was carried out using 24-well plate. The […] pore-sized transwell inserts were coated with matrigel at 1 mg/mL on the upper chamber. The lower chamber was filled with medium containing 20% FBS as chemoattractant agents. The coated filter and upper chamber were laid over the lower chamber. […] After incubation for 24 h at 37°C, cells were fixed in methanol for 20 min. The cells on the inner layer were softly removed with a cotton swab, and the adherent cells on undersurface of the insert were stained with 0.1% crystal violet dye for 15 min. The filters were washed with PBS and images were taken. The invading cells were counted and photographed under a light microscope (Zeiss, Germany) at × 200 magnification. Five fields were counted per filter in each group and the experiment was conducted in triplicate.

[5] = test system: integrin α6, integrin β1, FAK, Src, paxillin and PTEN; assay: Western blot of focal adhesion signaling proteins in HepG2 cells; type: cell-based, human; settings: 24 h, UA 5 μM, US597 0.2, 1, 5 μM
Protocol: Cell dishes were washed with cold phosphate-buffered saline and treated with lysis buffer for several seconds at an ice-cold bath, and then cell lysates were clarified by centrifugation at 12,000 g for 5 min under 4°C and the supernatants were recovered. The concentrations of proteins were determined by the BCA method. Samples with equivalent amounts of proteins were resolved by SDS-PAGE using a 10% gel. Proteins were transferred to a polyvinyldene difluoride (PVDF) membrane. The membranes were washed for ten minutes with TBS (20 mM Tris, 160 mM NaCl) and were blocked by blocking solution (10 mM Tris-HCl (pH 7.4), 125 mM NaCl, 0.1% Tween 20, and 5% skim milk). The blots were washed three times with TBST(20 mM Tris, 160 mM NaCl, 0.1% Tween 20), and they were incubated with specific primary antibodies diluted 1:1000 in TBST solution overnight at 4°C. Subsequently, the blots were washed three times with TBST (20 mM Tris, 160 mM NaCl, 0.1% Tween 20), and then the blots were incubated with secondary antibody (horseradish peroxidase conjugated goat anti-rabbit-IgG) diluted 1:5000 in TBST solution for 2 h at 37°C. […] Chemiluminescent signals were generated using a Super Signal West Pico Chemiluminescent Substrate kit (Pierce), and detected by using the ChemiDoc XRS system (Bio-Rad). The target proteins expression was quantified by use of Image Lab analysis software (Bio-Rad).

[6] = test system: nine cancer cell lines (MHCC-97H, MHCC-97L, HepG2, M619, MDA-MB-231, MCF-7, HT29, SW620, B16-F10); assay: MTT cell viability assay, span over nine cancer cell lines; type: cell-based; settings: 24 h, read-out: IC50 to suppress cell proliferation, span over nine cancer cell lines
Protocol: as §1

HepG2 cells [7] = assay: MTT cell viability assay; type: cell-based; settings: Homo sapiens, HepG2, 24 h, read-out: IC50, cell proliferation
Protocol: as §1

MHCC-97H cells = assay: MTT cell viability assay; type: cell-based; settings: Homo sapiens, MHCC97H, 24 h, read-out: IC50, cell proliferation
Protocol: as §1

MHCC-97L cells = assay: MTT cell viability assay; type: cell-based; settings: Homo sapiens, MHCC97L, 24 h, read-out: IC50, cell proliferation
Protocol: as §1

ICAM-1 [8] = assay: qRT-PCR of mRNA in IL-1β-stimulated HUVECs; type: cell-based, human; settings: IL-1β 1 ng/mL 4 h, then 24 h, UA 5 μM, US597 0.2, 1, 5 μM
L02 cells = assay: MTT cell viability assay, normal liver cells; type: cell-based; settings: L02 normal human liver cells, 24 h
Protocol: as §1

B16-F10 cells = assay: MTT cell viability assay; type: cell-based, murine; settings: Mus musculus, B16-F10, 24 h, read-out: IC50, cell proliferation
Protocol: as §1

ICAM-1 [9] = assay: Flow cytometry of surface expression on IL-1β-stimulated HUVECs; type: cell-based, human; settings: 5 μM, 24 h
Protocol: (§3) Cells expression of ICAM-1, VCAM-1, E-selectin, integrin α4, α5, α6 and β1 were performed via flow cytometry. […] After incubation, the cells were washed twice with PBS and collected for staining. The cells and primary antibodies were incubated at 4°C for 20 min in the dark. After washing with staining buffer, cell adhesion molecule (ICAM-1, VCAM-1 and E-selectin) and integrins (integrin α6 and β1) expression on cell-surface were measured by BD FACSAriaIII flow cytometry. The data were processed by FlowJo software and expressed as the mean fluorescent intensities.

VCAM-1 [10] = assay: as above; type: cell-based, human; settings: 5 μM, 24 h
Protocol: as §3

[11] = Toxicity in tumor metastatic mice (body weight, histopathology, blood analysis); type: in vivo, C57BL/6 mice; settings: 28 days
Protocol: as §2

ICAM-1 [12] = assay: ICAM-1 immunohistochemistry of lung tissue; type: in vivo, C57BL/6 mice; settings: UA group and high dose US597 group, P < 0.01
Protocol: Frozen sections (6 μm) were stained with anti-ICAM-1 antibody as previously described. ICAM-1 expression in lung tissue was performed with avidin-biotin complex (ABC) method. Results for ICAM-1 positive cells are shown as × 200 magnification.

IC50 [6]: 31.7 to 60.1 µM
IC50 (HepG2 cells [7]): 33.1 µM
IC50 (B16-F10 cells): 31.7 µM
SMILES: C[C@H]1[C@H](C)CC[C@]2(C(=O)O)CC[C@]3(C)C(=CC[C@@H]4[C@@]5(C)CC[C@H](O)C(C)(C)[C@@H]5CC[C@]43C)[C@H]12 [UA, 3β-hydroxy-urs-12-en-28-oic acid]
IC50 (HUVEC cells): 51.1 µM
cell migration in wound healing assay (HepG2 cells [1]): showed less migration in wound area
VCAM-1 mRNA expression (VCAM-1 [2]): almost no change
inhibitory rate, number of lung metastatic nodules [3]: 14.45%
average number of invaded cells (HepG2 cells [4]): 75 ± 3
protein expression of integrin α6, integrin β1, FAK, Src, paxillin and PTEN [5]: the effect was prominent
IC50 (MHCC-97H cells): 36.1 µM
IC50 (MHCC-97L cells): 32.2 µM
ICAM-1 mRNA expression (ICAM-1 [8]): inhibited the induction
IC50 (L02 cells): 41.9 µM
ICAM-1 expression, % of control (ICAM-1 [9]): no significant effect
VCAM-1 expression, % of control (VCAM-1 [10]): no significant effect
LYMPH ([11]; 80 mg/Kg, normal range 0.9 – 9.3, control 6.82 ± 2.17): 3.65 ± 1.48 × 10^9/L
WBC ([11]; 80 mg/Kg, normal range 1.8 – 10.7, control 9.31 ± 1.28): 7.14 ± 0.33 × 10^9/L
RBC ([11]; 80 mg/Kg, normal range 6.36 – 9.42, control 9.04 ± 0.27): 8.84 ± 2.31 × 10^12/L
HGB ([11]; 80 mg/Kg, normal range 110.0 – 151.0, control 136.42 ± 1.15): 131.56 ± 0.89 g/L
PLT ([11]; 80 mg/Kg, normal range 592 – 2972, control 1583 ± 126): 1461 ± 251 × 10^9/L
animal body loss ([11]; 80 mg/kg daily oral): did not induce significant animal body loss
histopathology of heart, liver, spleen, kidney and small intestine ([11]; 80 mg/kg daily oral, H&E): no remarkable histopathological abnormalities or lesions
ICAM-1 expression in lung tissue vs control (ICAM-1 [12]): significantly decreased

Source: publication PMC4496218 (Oncotarget, 2015)
